# Source: the NIST ThermoML archive (doi:10.1021/je0301794)
# Values joined by “and” are separate entries in the source; they are usually repeats but may differ in a detail not shown here. Equal values may be shown once. Numbers after ± are expanded uncertainties.
# How the values were obtained:
# [1] = xn = mol fraction of the nth substance listed; conditions: 101.3 kPa, Liquid
# [2] = excess molar enthalpy (molar enthalpy of mixing); xn = mol fraction of the nth substance listed; conditions: 318.15 K, 101.3 kPa, Liquid
# [3] = Liquid; for mass density: 101.3 kPa; for Normal boiling temperature: Closed cell (Static) method
mass density ([3]; 293.15 K) [kg/m3],mass density ([3]; 298.15 K) [kg/m3],mass density ([3]; 303.15 K),mass density ([3]; 313.15 K) [kg/m3],mass density ([3]; 318.15 K) [kg/m3],Normal boiling temperature [3] [°C],Compound,also measured
–,–,–,–,–,–,CCCCCCCC [octane] + COC(=O)OC,"mass density ([1]; 293.15 K, x2 = 0): 702.5 ± 0.5 kg/m3; mass density ([1]; 298.15 K, x2 = 0): 698.5 ± 0.5 kg/m3; mass density ([1]; 303.15 K, x2 = 0): 694.5 ± 0.5 kg/m3; mass density ([1]; 313.15 K, x2 = 0): 686.3 ± 0.5 kg/m3; mass density ([1]; 318.15 K, x2 = 0): 682.1 ± 0.5 kg/m3; excess molar enthalpy ([2]; x2 = 0): 0 ± 0.000478 kcal/mol"
659.3 ± 0.5,654.8 ± 0.5,650.4 ± 0.5 kg/m3,641.1 ± 0.6,636.4 ± 0.6,68.78 ± 0.2,CCCCCC [hexane],–
717.7 ± 0.5,713.9 ± 0.5,710.1 ± 0.5 kg/m3,702.2 ± 0.5,698.1 ± 0.5,150.51 ± 0.2,CCCCCCCCC [nonane],–
683.6 ± 0.5,679.4 ± 0.5,675.3 ± 0.5 kg/m3,666.6 ± 0.5,661.5 ± 0.5,98.03 ± 0.2,CCCCCCC [heptane],–
–,726.2 ± 0.5,722.3 ± 0.5 kg/m3,714.7 ± 0.5,710.9 ± 0.5,173.8 ± 0.2,CCCCCCCCCC [decane],–
–,–,–,–,–,–,CCCCCC [hexane] + COC(=O)OC,"mass density ([1]; 293.15 K, x2 = 0): 659.3 ± 0.5 kg/m3; mass density ([1]; 298.15 K, x2 = 0): 654.8 ± 0.5 kg/m3; mass density ([1]; 303.15 K, x2 = 0): 650.4 ± 0.5 kg/m3; mass density ([1]; 313.15 K, x2 = 0): 641.1 ± 0.6 kg/m3; mass density ([1]; 318.15 K, x2 = 0): 636.4 ± 0.6 kg/m3; excess molar enthalpy ([2]; x2 = 0): 0 ± 0.000478 kcal/mol"
702.5 ± 0.5,698.5 ± 0.5,694.5 ± 0.5 kg/m3,686.3 ± 0.5,682.1 ± 0.5,125.50 ± 0.2,CCCCCCCC [octane],–
–,–,–,–,–,–,CCCCCCC [heptane] + COC(=O)OC,"mass density ([1]; 293.15 K, x2 = 0): 683.6 ± 0.5 kg/m3; mass density ([1]; 298.15 K, x2 = 0): 679.4 ± 0.5 kg/m3; mass density ([1]; 303.15 K, x2 = 0): 675.3 ± 0.5 kg/m3; mass density ([1]; 313.15 K, x2 = 0): 666.6 ± 0.5 kg/m3; mass density ([1]; 318.15 K, x2 = 0): 661.5 ± 0.5 kg/m3; excess molar enthalpy ([2]; x2 = 0): 0 ± 0.000478 kcal/mol"
–,–,–,–,–,–,COC(=O)OC [dimethyl carbonate] + CCCCCCCCCC,"mass density ([1]; 298.15 K, x1 = 1): 1063.5 ± 0.6 kg/m3; mass density ([1]; 303.15 K, x1 = 1): 1056.6 ± 0.6 kg/m3; mass density ([1]; 313.15 K, x1 = 1): 1043.4 ± 0.5 kg/m3; mass density ([1]; 318.15 K, x1 = 1): 1036.9 ± 0.5 kg/m3; excess molar enthalpy ([2]; x1 = 1): 0 ± 0.000478 kcal/mol"
–,–,–,–,–,–,COC(=O)OC [dimethyl carbonate] + CCCCCCCCC,"mass density ([1]; 293.15 K, x1 = 1): 1070 ± 0.6 kg/m3; mass density ([1]; 298.15 K, x1 = 1): 1063.5 ± 0.6 kg/m3; mass density ([1]; 303.15 K, x1 = 1): 1056.6 ± 0.6 kg/m3; mass density ([1]; 313.15 K, x1 = 1): 1043.4 ± 0.5 kg/m3; mass density ([1]; 318.15 K, x1 = 1): 1036.9 ± 0.5 kg/m3; excess molar enthalpy ([2]; x1 = 1): 0 ± 0.000478 kcal/mol"

Compound,mass density ([3]; 293.15 K) [kg/m3],mass density ([3]; 298.15 K) [kg/m3],mass density ([3]; 303.15 K),mass density ([3]; 313.15 K) [kg/m3],mass density ([3]; 318.15 K) [kg/m3],Normal boiling temperature [3] [°C],also measured
COC(=O)OC [dimethyl carbonate],1070 ± 0.6,1063.5 ± 0.6,1056.5 ± 0.6 kg/m3 and 1056.6 ± 0.6 kg/m3,1043.4 ± 0.5,1036.9 ± 0.5,90.31 ± 0.2,–
